US4604382A, “3'-amino-2',3'-dideoxycytidine and the pharmacologically acceptable salts thereof” (Research Corporation, priority 1983, dated 1986)
Converted amounts (≈) assume the structure as drawn. Where two headings read alike, the source gives them in different places.

Tests used:
[1] = tested on: cytotoxicity of the novel compound; assay type: cell-based; details: in words
Procedure: (§1) At a 5 μM concentration of this compound the addition of 25 μM and 100 μM of 2'-deoxycytidine prevented the cytotoxicity of the novel compound against L1210 cells by 35% and 100% respectively.

[2] = tested on: S-180 cells; assay type: cell-based, mouse; details: 25 μM 2'-deoxycytidine added to 20 μM of the new compound
Procedure: (§2) Mouse L1210 and S-180 cells were maintained as suspension cultures in Fischer's medium supplemented with 10% horse serum at 37° C. in a humidified atmosphere of 5% CO2 -95% air. Under these conditions the generation time for L1210 and S-180 cells is approximately 12 and 18 hours, respectively. The test compound at the given concentration, was added to L1210 and S-180 cells (2×10^4 cells/mL) which were in their exponential phase of growth. The increase in cell number of the drug-free culture (control), as well as that of the cultures supplemented with the test compound, was determined after 24, 48 and 72 hours of growth.
as §1

[3] = tested on: L1210 cells; assay type: cell-based, mouse
Procedure: as §2, §1

[4] = tested on: L1210 leukemia; experiment: L1210 leukemia in CDF1 mice, survival time (T/C); assay type: in vivo, mouse (CDF1 female mice); details: 160 mg/kg i.p. twice a day for 3 days, starting 24 hours post inoculation of 1×10^5 L1210 cells
Procedure: Transplantation of L1210 ascites cells was carried out by withdrawing peritoneal fluid from donor CDF1 mice bearing 7-day growths. The suspension was centrifuged for 2 minutes (1600 g), the supernatant peritoneal fluid was decanted, and a 10-fold dilution with isotonic saline was made. The cell number was determined with a Coulter particle counter and the cell population was adjusted to 10^6 cells/mL. One-tenth mL of the resulting cell suspension (containing approximately 10^5 cells) was injected intraperitoneally into each animal. The drug was administered by intraperitoneal injection, beginning 24 hours after tumor implantation,twice daily for 3 consecutive days. The test compound was injected as a solution in isotonic saline. The drug was administered intraperitoneally in a volume of 0.25 mL. […] Mice were weighed during the course of the experiments, and the percentage change in body weight from onset to termination of therapy was used as an indication of drug toxicity. Determination of the sensitivity of ascitic neoplasms to this agent were based on the prolongation of survival time afforded by the drug treatments. The median survival time and the ratio of survival time for treated (T)/control (C) was calculated.
3'-Amino-2',3'-dideoxycytidine was screened against CDF1 female mice bearing L1210 leukemia according to the above protocol. Three groups of mice with 4 mice in each group were inoculated with 1×10^5 L1210 murine leukemia cells. Starting 24 hours post inoculation, the first group of mice was injected with saline as the vehicle control, the second group with 160 mg/kg of the test compound in saline twice a day, for 3 days. All control mice died by day 9. In the group treated with the test compound, one mouse died at day 21, the second at day 24, the third at day 29 and the last one at day 31, yielding a T/C×100 value of 283.

[5] = tested on: L1210 cells; experiment: Inhibition of replication of L1210 cells in vitro; assay type: cell-based; details: Mus musculus, mean cell counts after 72 hours, triplicate, read-out: ID50 (L1210)
Procedure: as §2
(§3) 3'-Amino-2',3'-dideoxycytidine was also screened against S-180 neoplastic cells in vitro. The ID50 values were estimated from dose-response curves compiled from at least two independent experiments and represent the drug concentration required to inhibit replication of L1210 or S-180 neoplastic cells by 50%.
(§4) ID50 values were determined from plots of mean cell counts after 72
(§5) hours. Assays were carried out in triplicate with appropriate controls.

[6] = Water solubility of the new compound; assay type: physicochemical; details: at 23° C.
Procedure: The new compound has excellent water solubility (~0.5 g/mL at 23° C.) and readily forms non-toxic acid addition salts with a variety of pharmacologically acceptable organic and inorganic salt-formingreagents. Thus, acid addition salts formed by admixture of the organic free base with up to two equivalents of an acid, suitably in a neutral solvent, are formed with such acids as sulfuric, phosphoric, hydrochloric,hydrobromic, sulfamic, citric, lactic, malic, succinic, tartaric, acetic, benzoic, gluconic, ascorbic, and the like. For purposes of this invention, the free base is equivalent to the non-toxic acid addition salts. The acid addition salts are, in general, crystalline solids, very soluble in water, relatively soluble in methanol and ethanol but relatively insoluble in non-polar organic solvents such as diethyl ether, benzene, toluene, and the like.

[7] = tested on: S-180 cells; experiment: Inhibition of replication of S-180 cells in vitro; assay type: cell-based; details: Mus musculus, mean cell counts after 72 hours, triplicate, read-out: ID50 (S-180)
Procedure: as §2, §3, §4, §5

[8] = 4 mice, all controls died by day 9

## Nc1ccn([C@H]2C[C@H](O)[C@@H](CO)O2)c(=O)n1 [2'-deoxycytidine]
[1]
  prevention of the cytotoxicity of the novel compound: uniquely prevented
[2]
  prevention of the cytotoxicity of the novel compound against S-180 cells: 27%
[3]; 25 μM 2'-deoxycytidine added to 5 μM of the novel compound
  prevention of the cytotoxicity of the novel compound against L1210 cells: 35%
[3]; 100 μM 2'-deoxycytidine added to 5 μM of the novel compound
  prevention of the cytotoxicity of the novel compound against L1210 cells: 100%
[3]; dose dependence, in words
  preventive effect on the cytotoxicity of the novel compound against L1210 cells: dose dependent

## Nc1ccn([C@H]2C[C@H](N)[C@@H](CO)O2)c(=O)n1 [3'-amino-2',3'-dideoxycytidine, 3'-Amino-2',3'-dideoxycytidine]
[4]
  T/C×100 (survival time treated/control): 283
[4]; [8]
  day of death, first mouse: 21 days
  day of death, last mouse: 31 days
  day of death, second mouse: 24 days
  day of death, third mouse: 29 days
[5]
  IC50: 700 nM
[6]
  solubility: ~500 mg/mL (≈ 2210 mM)
[7]
  IC50: 4000 nM
